In data set [1] the test system is writhing in mice induced by acetic acid. Nature of the data set: writhing in mice induced by acetic acid. The class given is in vivo. As to conditions: for ED50: Mus musculus, read-out: ED50 (mg/kg) of inhibition of writhing; for maximum inhibitory rate (%) on mouse writhing: ig 1 h before 0.6% acetic acid ip, maximum of three dose groups (30, 10, 3 mg/kg; R 90, 30, 10 mg/kg), n=10. For orientation: An intraperitoneal irritant provokes the stretching counted in writhing tests.
Protocol: For each group, the required weights of drugs are weighted, and are milled with 0.5% CMC—Na to required concentration ready-for-use.
Each group of animals is fasted for 12 h, but drinking ad libitum. At 1 hour after intragastric administration of corresponding drugs, 0.6% acetic acid (0.2 ml/per) is intraperitoneally injected, and the number of writhing of mice in 15 min after injection are recored. The mice with waist muscle repeat shrinkage, bump back, rump torsion and posterior limb stretch are used as writhing positive animals. Inhibition rates of drugs on writhing are calculated based on the following formula:
Inhibition rate (%)=[(number of writhing of the control group−number of writhing of administrated group)/number of writhing of the control group]×100%
Inhibition rate of each dose-group on writhing (%) is obtained by means of above method. Fitting data of dosage (mg/kg) and corresponding inhibition rate (%) via Microsoft EXCEL software to get a trendline, so as to obtain the half-effective inhibiting dose (ED50) of each tested group on writhing.

In data set [2] the test system is ICR mice. The data set is described as follows: in vivo. The conditions noted are these: LD50 ip compared with S. From the text:
(§1) Each tested group includes 5 dose-groups during the tests as follows:
(§2) Intraperitoneal injection (ip)
(§3) (3) Observed periods: 14 days.

Data set [3] can be described thus: in vivo. The conditions noted are these: mouse, in vivo, ip.
Excerpt: as §1, §2, §3

For the next data set, the target named is T1, Cox-1 (Ovis aries, UniProt P05979).
T1 construct: purchased Cayman, USA
T1 sequence (P05979 25-600): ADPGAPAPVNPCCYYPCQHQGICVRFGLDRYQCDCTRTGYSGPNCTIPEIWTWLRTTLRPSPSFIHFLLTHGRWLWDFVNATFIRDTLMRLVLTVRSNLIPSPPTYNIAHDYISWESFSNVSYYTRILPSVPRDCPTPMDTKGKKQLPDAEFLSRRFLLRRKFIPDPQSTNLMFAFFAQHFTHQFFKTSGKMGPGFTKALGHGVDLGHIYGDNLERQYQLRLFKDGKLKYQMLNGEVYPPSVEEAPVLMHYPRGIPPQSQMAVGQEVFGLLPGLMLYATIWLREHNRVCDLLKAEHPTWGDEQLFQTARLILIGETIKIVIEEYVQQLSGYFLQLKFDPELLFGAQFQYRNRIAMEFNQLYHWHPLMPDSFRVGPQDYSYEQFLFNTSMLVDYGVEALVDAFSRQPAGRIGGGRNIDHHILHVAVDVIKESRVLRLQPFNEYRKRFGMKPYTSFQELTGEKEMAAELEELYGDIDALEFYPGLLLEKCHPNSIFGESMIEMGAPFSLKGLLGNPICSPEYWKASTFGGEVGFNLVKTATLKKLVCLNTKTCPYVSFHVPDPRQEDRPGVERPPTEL
Nature of the data set: inhibiting activity to COX-1 (TMPD colorimetric, 590 nm). It is filed as biochemical. As to conditions: tested at 300, 100, 30, 10 μmol/L (positive control 100, 30, 10, 3). On the procedure: (§4) 2.5.1 The Inhibiting Activity to COX-1/COX-2
(§5) (1) In 220 ul of reaction system, mixed buffer (1×), heme, COX-1/COX-2, and the compound to be tested, are sequentially added, and are incubated for 5 minutes at 25° C.;
(§6) (2) Adding chromogenic substrate (TMPD) and arachidonic acid;
(§7) (3) Carefully shaking the plate for several seconds, then incubating for 15 minutes at 25° C.;
(§8) (4) Detecting absorption value at 590 nm.
(§9) Fitting data of concentration (μmol/L) and corresponding inhibition rate (%) via Microsoft EXCEL software to get a trendline, so as to obtain the half-effective inhibiting concentration (IC50) of each tested enzyme.

For data set [4], the system named is ICR mice. Nature of the data set: in vivo. The conditions noted are these: LD50 ig compared with S.
Excerpt: as §1
(§10) Intragastric administration (ig)
(§11) (3) Observed periods: 14 days

The nature of data set [5]: in vivo. As to conditions: mouse, in vivo, po.
Excerpt: as §1, §10, §11

The next data set deals with T2, Cox-2 (Homo sapiens, UniProt P35354).
T2 construct: purchased Cayman, USA
T2 sequence (P35354 18-604): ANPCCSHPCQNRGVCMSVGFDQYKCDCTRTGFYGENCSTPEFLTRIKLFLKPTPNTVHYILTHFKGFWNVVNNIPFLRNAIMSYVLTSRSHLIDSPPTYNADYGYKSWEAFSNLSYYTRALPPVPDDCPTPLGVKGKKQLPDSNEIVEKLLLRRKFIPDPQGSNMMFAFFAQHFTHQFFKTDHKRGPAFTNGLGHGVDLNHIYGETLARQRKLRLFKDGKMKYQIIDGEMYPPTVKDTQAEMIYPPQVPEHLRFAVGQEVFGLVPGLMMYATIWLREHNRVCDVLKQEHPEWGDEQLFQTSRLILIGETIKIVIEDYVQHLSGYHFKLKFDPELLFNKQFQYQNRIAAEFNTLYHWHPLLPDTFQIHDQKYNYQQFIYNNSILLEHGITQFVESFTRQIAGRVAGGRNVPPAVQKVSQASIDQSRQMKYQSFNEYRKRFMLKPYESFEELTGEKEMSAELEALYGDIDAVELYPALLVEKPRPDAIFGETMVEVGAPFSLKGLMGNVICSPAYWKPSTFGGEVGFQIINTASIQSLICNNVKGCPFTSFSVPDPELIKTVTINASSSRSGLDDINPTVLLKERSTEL
Nature of the data set: inhibiting activity to COX-2 (TMPD colorimetric, 590 nm). It is filed as biochemical. The conditions noted are these: tested at 300, 100, 30, 10 μmol/L (positive control 100, 30, 10, 3). On the procedure:
as §4, §5, §6, §7, §8, §9

The subject of another data set is SD rats. Nature of the data set: long-term toxicity test in SD rats, thirteen-week consecutive intragastric administration and four-week convalescence. As to conditions: for nontoxic dosage: 13-week consecutive intragastric administration. On the procedure:
2. […] The tested samples are formulated into suspensions by milling with 0.5% CMC—Na; intragastric administration (10 ml/kg) every day for consecutive 13 weeks; on each day, after administration, the general conditions of the animals are observed, and weight and amount of ingestion are determined once every week. In 24 hours after the last administration, half of rats in each tested group are fasted overnight, blood samples are withdrawn via femoral arteries, and the rats are dissected, and the indexes of blood cytology and biochemics, gloss anatomy and histopathological examination are preformed. The administration to remaining half rats is stopped, and the convalescence is observed; general conditions are observed and weight and amount of ingestion are determined once every week. After 4 weeks, the observation is complete, and the half of rats in each tested group are fasted overnight, blood samples are withdrawn via femoral arteries, and the rats are dissected, and the indexes of blood cytology and biochemics, gloss anatomy and histopathological examination are preformed.

The test system of data set [6] is auricle tumefaction of mice caused by xylene. Nature of the data set: auricle tumefaction of mice caused by xylene. The class given is in vivo. The conditions noted are these: 3 h after xylene. As for the experimental part:
90 healthy Kunming species of Mus musculus albus are selected, male, weight 18˜22 g, totally 9 tested groups, and each group of 10 mice, said tested groups comprising:
At 0.5 h before modeling, groups (8) and (9) are administrated tested drugs, and other groups are administrated tested drugs at 1 h before modeling. During modeling, the right ears of mice are coated with xylene at concentration of 30 μl/per ear to inflame the ear, and the left ears are performed no treatment. Once 3 h after coating xylene, the animals are sacrificed, and two ears of each mouse are cut, and ear wafers are obtained by making holes at the same positions of ears with puncher with diameter of 8 mm, and then are weighted via an electronic balance.
The tumefaction degree refers to the weight difference of the weight of inflamed ear wafer minus non-inflamed ear wafer. The tumefaction rate tumefaction degree/the weight of normal ear wafer×100‰ The average value of the tumefaction degree and tumefaction rate of each tested group is compared, so as to obtain the ability of anti-inflammation of each tested drug.
Using Microsoft EXCEL software, the average value of tumefaction degree of each tested group and the average value of control group are analyzed by means of t-test, and P<0.05 is considered as statistically significant difference.

From patent US20110224276A1, “OPTICAL ISOMER OF PHENYLPROPIONIC ACID AND ITS MEDICINAL USE” (priority 2008, published 2011) come the findings set out here.

A value given as a limit tells only on which side of the number the result lay.

As for `CC(C(=O)O)c1ccc2c(c1)CC(=O)c1ccccc1S2` (racemic) [RS, 10,11-dihydro-alpha-methyl-10-oxo-dibenzo[b,f]tiazem-2-acetic acid, reference compound], the ED50 in data set [1] is 9.2 mg/kg. Also, in data set [1], the “maximum inhibitory rate (%) on mouse writhing” value (from here on “maximum inhibitory rate (%)”) was found to be 63.6%. Moreover, the “Com. Vs. S (multiple)” value is on record as 1.3 multiple with ICR mice [2] and 1.2 multiple with ICR mice [4]. Besides, the LD50 – broadly, the dose expected to kill half of the subjects tested – at 14 days was determined as 252 ± 18.9 mg/kg in the data set “in vivo [3]” and 327 ± 30.7 mg/kg in “in vivo [5]”. For the same compound, the IC50 (as a rule, the concentration at which inhibition is half-maximal) is 153 µM against Cox-1 and 7.6 µM against Cox-2. Besides, the “animals dead during thirteen-week administration” value in the data set on SD rats (50 mg/kg ig daily, 20 rats per group) came out at 2 animals. Moreover, in the data set with SD rats (13-week ig, rats, S 50, 25, RS 50, R 400, 200, 100, R:S=6:1 200, 100, 50 mg/kg), the gastrointestinal tract toxicity result is listed as “produces significant gastrointestinal tract toxicity”. Moreover, the nontoxic dosage in the data set with SD rats (rats) amounted to 25 mg/kg. Moreover, the “tumefaction degree” value in data set [6] (10 mg/kg ig) stood at 5.2 ± 2.9 mg; in data set [6] (20 mg/kg ig) it was 3.7 ± 2.5 mg.

Regarding `C[C@@H](C(=O)O)c1ccc2c(c1)CC(=O)c1ccccc1S2` [R, R-10,11-dihydro-alpha-methyl-10-oxo-dibenzo[b,f]tiazem-2-acetic acid], the ED50 in data set [1] is 25.4 mg/kg. In addition, the “maximum inhibitory rate (%)” value in [1] is reported as 71.3%. For the same compound, the entries for the “Com. Vs. S (multiple)” value in the data set on ICR mice [2] and with ICR mice [4] were 3.7 multiple and 14.9 multiple, respectively. Also, the LD50 at 14 days in the data set “in vivo [3]” (ICR) was determined as 744 ± 69.8 mg/kg; in the data set “in vivo [5]” (ICR) it was 3990 ± 153 mg/kg. Further, the concentration for half-maximal inhibition (IC50) at Cox-1 is above 300 µM; against Cox-2 it was 48.6 µM. The nontoxic dosage in the data set with SD rats (rats) was found to be 200 mg/kg. For the same compound, the “tumefaction degree” value turned out to be 3.5 ± 2.0 mg in data set [6] (20 mg/kg ip), 3.8 ± 2.8 mg in data set [6] (40 mg/kg ig), 2.3 ± 1.8 mg in data set [6] (40 mg/kg ip) and 2.5 ± 1.4 mg in data set [6] (80 mg/kg ig).

In the case of `C[C@H](C(=O)O)c1ccc2c(c1)CC(=O)c1ccccc1S2` [S, S-10,11-dihydro-alpha-methyl-10-oxo-dibenzo[b,f]tiazem-2-acetic acid], the ED50 in data set [1] was 8.6 mg/kg. Besides, in [1], the “maximum inhibitory rate (%)” value turned out to be 80.1%. For the same compound, the “Com. Vs. S (multiple)” value in the data set on ICR mice [2] and in the data set on ICR mice [4] was 1.0 multiple each time. For the same compound, the LD50 at 14 days in “in vivo [3]” (ICR) is 201 ± 14.3 mg/kg; in “in vivo [5]” (ICR) it was 268 ± 22.2 mg/kg. For the same compound, the IC50 was 186 µM at Cox-1 and 21.6 µM against Cox-2. Moreover, the nontoxic dosage in the data set with SD rats (rats) was 12.5 mg/kg. The “tumefaction degree” value came out at 4.9 ± 2.3 mg in [6] (10 mg/kg ig) and 3.1 ± 3.2 mg in [6] (20 mg/kg ig).
